Data published in PubChem BioAssay AID1963836 (Molecular Pharmacology Branch, DTP, NCI, 2024).

System: 857933-349-R-J2-PDC complex spheroid viability
Assay: Anticancer human tumor 857933-349-R-J2-PDC patient-derived colon adenocarcinoma cell line growth inhibition [POLQ]
Conditions: for IC50: curve of first compound; for viability, T/C: stronger effect = lower value
Description: Multicellular complex tumor spheroid response to Polymerase (POL) inhibitors (novobiocin, ART-558, RP6685) in combination with a variety of drugs and investigational agents in selected tumor cell lines
The POL inhibitors (novobiocin, ART-558, and RP6685) were evaluated both individually and in combination with standard of care and investigational anticancer small molecules within a complex spheroid model of solid tumors. . Complex spheroids include a stromal component modeled by human endothelial cells (HUVEC) and fibroblasts modeled by human mesenchymal stem cells (MSCs). The concentration ranges selected for each drug and investigational agent were based upon clinically achievable concentrations if the clinical Cmax of the agent was known.
Compounds. The drugs and investigational agents: novobiocin (NSC847541), ART-558 (NSC835418), RP-6685 (NSC848927), peposertib (NSC802822), ceralasertib (NSC780249), elimusertib (NSC800525), camonsertib (NSC841442), AZD-1390 (NSC803789), olaparib (NSC753686), talazoparib (NSC767125), rucaparib (NSC756644), sotorasib (NSC818433), MRTX-1133 (NSC836407), SN-38 (NSC673596), topotecan (NSC609699), epotoside (NSC141540), doxorubicin (NSC123127), gemcitabine (NSC613327), 5-fluorouracil (NSC19893), paclitaxel (NSC125973), vemurafenib (NSC761431), MSA-2 (NSC828583), SN-011 (NSC837082), adavosertib (NSC754352), prexasertib (NSC758257), carboplatin (NSC241240) and oxaliplatin (NSC266046), were obtained from the National Cancer Institute (NCI) Developmental Therapeutics Program Chemical Repository (21). The FDA-approved anticancer drug set is available from the Developmental Therapeutics Program at https://dtp.cancer.gov/organization/dscb/obtaining/. […] The stock solutions were prepared in dimethyl sulfoxide (DMSO, Sigma-Aldrich, St. Louis, MO, cat. D2650), except for the platinum compounds which were prepared in saline (Quality Biological, Gaithersburg, MD, cat. 114-055-101), at 800-fold the tested concentration and stored at -70 degrees C prior to their use. All drugs and investigational agents were tested over a range starting from a high concentration at or near the clinical Cmax and decreasing in half-log increments. If the clinical Cmax for an agent had not been determined, the highest concentration tested was 10 microM, except for SN-38, which was tested at a high concentration of 1 microM.
Cell Culture. All cells were maintained in an incubator at 37 degrees C and 5% CO2 with 95% humidity. The PDC lines were cultured according to standard operating procedures established by the NCI PDMR (https://pdmr.cancer.gov). Table 3 of the manuscript, lists the cell lines along with the number of the three cell types plated to form the mct-spheroids and media for tumor cell growth. After thawing, all PDC lines, except 997537-175-T-J1-PDC and 415267-285-R-J2-PDC, were cultured in Matrigel-coated flasks prepared with a working solution of 1X Ham's F-12 nutrient mix, without supplementation (Thermo Fisher Scientific, cat. 11765054), 100 U/mL penicillin-streptomycin (Thermo Fisher Scientific, cat. 15140122), and 2.5% Matrigel (Corning Inc., Corning, NY, cat. 354248) for the first three passages. The two PDC lines 997537-175-T-J1-PDC and 415267-285-R-J2-PDC were cultured on uncoated flasks. The 857933-349-R-J2-PDC line was cultured in 6C/Colon 1B media containing advanced DMEM/F-12 (Thermo Fisher Scientific, cat. 12634028), 10 mM HEPES (Thermo Fisher Scientific, cat. 15630080), 1X GlutaMAX supplement (Thermo Fisher Scientific, cat. 35050061), 0.1 mg/mL primocin (InvivoGen, San Diego, CA, cat. ant-pm-2), 10% defined fetal bovine serum, heat inactivated (HyClone Laboratories Inc., Logan, UT, cat. SH30070.03HI), 50% L-WRN conditioned media (ATCC, cat. CRL-3276), 1.25 mM N-Acetyl-L-cysteine (Sigma-Aldrich, cat. A9165), 10 mM nicotinamide (Sigma-Aldrich, cat. N0636), 1X B-27 supplement (Thermo Fisher Scientific, cat. 17504044), 1X N-2 supplement (Thermo Fisher Scientific, cat. […]

[1] = second compound 0.0316 µM, first compound 0.0316 µM
[2] = second compound 0.0316 µM, first compound 0.1 µM
[3] = second compound 0.0316 µM, first compound 0.316 µM
[4] = second compound 0.0316 µM, first compound 1 µM
[5] = second compound 0.0316 µM, first compound 3.16 µM
[6] = second compound 0.0316 µM, first compound 10 µM
[7] = second compound 0.1 µM, first compound 0.0316 µM
[8] = second compound 0.1 µM, first compound 0.1 µM
[9] = second compound 0.1 µM, first compound 0.316 µM
[10] = second compound 0.1 µM, first compound 1 µM
[11] = second compound 0.1 µM, first compound 3.16 µM
[12] = second compound 0.1 µM, first compound 10 µM
[13] = second compound 0.316 µM, first compound 0.0316 µM
[14] = second compound 0.316 µM, first compound 0.1 µM
[15] = second compound 0.316 µM, first compound 0.316 µM
[16] = second compound 0.316 µM, first compound 1 µM
[17] = second compound 0.316 µM, first compound 3.16 µM
[18] = second compound 0.316 µM, first compound 10 µM
[19] = second compound 1 µM, first compound 0.0316 µM
[20] = second compound 1 µM, first compound 0.1 µM
[21] = second compound 1 µM, first compound 0.316 µM
[22] = second compound 1 µM, first compound 1 µM
[23] = second compound 1 µM, first compound 3.16 µM
[24] = second compound 1 µM, first compound 10 µM
[25] = second compound 3.16 µM, first compound 0.0316 µM
[26] = second compound 3.16 µM, first compound 0.1 µM
[27] = second compound 3.16 µM, first compound 0.316 µM
[28] = second compound 3.16 µM, first compound 1 µM
[29] = second compound 3.16 µM, first compound 3.16 µM
[30] = second compound 3.16 µM, first compound 10 µM
[31] = second compound 10 µM, first compound 0.0316 µM
[32] = second compound 10 µM, first compound 0.1 µM
[33] = second compound 10 µM, first compound 0.316 µM
[34] = second compound 10 µM, first compound 1 µM
[35] = second compound 10 µM, first compound 3.16 µM
[36] = second compound 10 µM, first compound 10 µM
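Note: spheroids exposed to compounds for seven days before readout.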

Q: With `CCCS(=O)(=O)Nc1ccc(F)c(C(=O)c2c[nH]c3ncc(-c4ccc(Cl)cc4)cc23)c1F` + COC1C(OC(N)=O)C(O)C(Oc2ccc3c(O)c(NC(=O)c4ccc(O)c(CC=C(C)C)c4)c(=O)oc3c2C)OC1(C)C as the compound, how does the IC50 (second compound 0.0316 µM) read?
A: 5.65 µM

Q: What about the IC50 (second compound 0.1 µM) of the same compound?
A: 6.17 µM

Q: What about the IC50 (second compound 0.316 µM) of the same compound?
A: 5.04 µM

Q: What about the IC50 (second compound 1 µM) of the same compound?
A: 5.74 µM

Q: And the IC50 (second compound 3.16 µM)?
A: 5.75 µM

Q: What about the IC50 (second compound 10 µM) of the same compound?
A: 6.76 µM

Q: What about the viability, T/C [1] of the same compound?
A: 73.7%

Q: And the viability, T/C [2]?
A: 113%

Q: And the viability, T/C [3]?
A: 96.1%

Q: What about the viability, T/C [4] of the same compound?
A: 117%

Q: What about the viability, T/C [5] of the same compound?
A: 85%

Q: What about the viability, T/C [6] of the same compound?
A: 15.7%

Q: And the viability, T/C [7]?
A: 96.9%

Q: And the viability, T/C [8]?
A: 112%

Q: What about the viability, T/C [9] of the same compound?
A: 107%

Q: What about the viability, T/C [10] of the same compound?
A: 109%

Q: What about the viability, T/C [11] of the same compound?
A: 103%

Q: And the viability, T/C [12]?
A: 12.1%

Q: And the viability, T/C [13]?
A: 132%

Q: And the viability, T/C [14]?
A: 121%

Q: What about the viability, T/C [15] of the same compound?
A: 76.7%

Q: What about the viability, T/C [16] of the same compound?
A: 99.8%

Q: And the viability, T/C [17]?
A: 85%

Q: And the viability, T/C [18]?
A: 12.4%

Q: What about the viability, T/C [19] of the same compound?
A: 108%

Q: What about the viability, T/C [20] of the same compound?
A: 77.6%

Q: What about the viability, T/C [21] of the same compound?
A: 121%

Q: And the viability, T/C [22]?
A: 94.5%

Q: And the viability, T/C [23]?
A: 89.9%

Q: What about the viability, T/C [24] of the same compound?
A: 13.3%

Q: What about the viability, T/C [25] of the same compound?
A: 108%

Q: And the viability, T/C [26]?
A: 117%

Q: What about the viability, T/C [27] of the same compound?
A: 101%

Q: What about the viability, T/C [28] of the same compound?
A: 95.5%

Q: What about the viability, T/C [29] of the same compound?
A: 89.2%

Q: What about the viability, T/C [30] of the same compound?
A: 16.6%

Q: What about the viability, T/C [31] of the same compound?
A: 93.9%

Q: And the viability, T/C [32]?
A: 83.7%

Q: And the viability, T/C [33]?
A: 93.7%

Q: What about the viability, T/C [34] of the same compound?
A: 82.5%

Q: What about the viability, T/C [35] of the same compound?
A: 87.1%

Q: What about the viability, T/C [36] of the same compound?
A: 30.9%

Q: Which results are given for `COc1cc(C2c3cc4c(cc3C(OC3OC5COC(C)OC5C(O)C3O)C3COC(=O)C23)OCO4)cc(OC)c1O` (centres undefined) + COC1C(OC(N)=O)C(O)C(Oc2ccc3c(O)c(NC(=O)c4ccc(O)c(CC=C(C)C)c4)c(=O)oc3c2C)OC1(C)C?
A: IC50 (second compound 0.0316 µM): 0.352 µM; IC50 (second compound 0.1 µM): 0.399 µM; IC50 (second compound 0.316 µM): 0.488 µM; IC50 (second compound 1 µM): 0.453 µM; IC50 (second compound 3.16 µM): 0.358 µM; IC50 (second compound 10 µM): 0.386 µM; viability, T/C [1]: 80.7%; viability, T/C [2]: 88.3%; viability, T/C [3]: 51.3%; viability, T/C [4]: 46.2%; viability, T/C [5]: 36.1%; viability, T/C [6]: 28.7%; viability, T/C [7]: 71.1%; viability, T/C [8]: 84.7%; viability, T/C [9]: 53.5%; viability, T/C [10]: 42.3%; viability, T/C [11]: 35.5%; viability, T/C [12]: 30.4%; viability, T/C [13]: 74.1%; viability, T/C [14]: 79.3%; viability, T/C [15]: 54.6%; viability, T/C [16]: 41%; viability, T/C [17]: 34.7%; viability, T/C [18]: 29.9%; viability, T/C [19]: 81.9%; viability, T/C [20]: 71.3%; viability, T/C [21]: 54.6%; viability, T/C [22]: 39.6%; viability, T/C [23]: 34.2%; viability, T/C [24]: 29.9%; viability, T/C [25]: 88.2%; viability, T/C [26]: 99%; viability, T/C [27]: 52.1%; viability, T/C [28]: 37.5%; viability, T/C [29]: 30.3%; viability, T/C [30]: 30.1%; viability, T/C [31]: 94.5%; viability, T/C [32]: 65.7%; viability, T/C [33]: 54.6%; viability, T/C [34]: 39.8%; viability, T/C [35]: 37.6%; viability, T/C [36]: 32.1%
